The numbers were not newly measured in PMC9775177, “NLRP3-Inflammasome Inhibition with IZD334 Does Not Reduce Cardiac Damage in a Pig Model of Myocardial Infarction” (Biomedicines, 2022), which cites them from elsewhere.

Data set [1] has as its system large animal model of MI. Also on record: method as in PMID 27432019. Particulars: cited from earlier work.
In data set [2] the test system is IR injury in mice. Further details: method as in PMID 30747785. The settings on record: cited from earlier work.
[3] abbreviates: large animal model, 7 days following MI.

As to `CC(C)(O)c1coc(S(=O)(=O)NC(=O)Nc2c3c(cc4c2CCC4)CCC3)c1` [MCC950], in data set [1] (setting [3]), the “IS (infarct size)” value was “dose-dependently reduced IS” and the LV function entry is recorded as “improvement in LV function”. The “circulating markers of inflammation” value in data set [1] (pigs treated with MCC950) is reported as “only modestly lower”.

With `CS(=O)(=O)CCC#N` [OLT1177], in data set [2], the infarct development result was “limited infarct development” and the left ventricular dysfunction result was “prevented left ventricular dysfunction”.
